In the CheMixHub viscosity set:

Test: xn = mol fraction of the nth substance listed

Nc1cccc(Cl)c1 + Brc1ccccc1
100 kPa
Details	viscosity [mPa·s]
313.15 K, x1 = 0.6782	2.875
318.15 K, x1 = 0.0902	1.155

CCC(=O)O + C1CCCCC1
303.15 K, 101 kPa
Details	viscosity [mPa·s]
x2 = 0.1973	0.8074
x2 = 0.286	0.771
x2 = 0.384	0.7319
x2 = 0.4987	0.7121
x2 = 0.5994	0.7197
x2 = 0.6998	0.7155
x2 = 0.8991	0.7582

CCC(=O)O + C1CCOC1
298.15 K, 101 kPa
Details	viscosity [mPa·s]
x2 = 0.1025	1.067
x2 = 0.2043	1.069
x2 = 0.3057	1.033
x2 = 0.4065	0.9675
x2 = 0.5067	0.8745
x2 = 0.6065	0.7835
x2 = 0.7056	0.6858
x2 = 0.8043	0.5947
x2 = 0.9024	0.5179

CCC(=O)O + C1COCO1
298.15 K, 101 kPa
Details	viscosity [mPa·s]
x2 = 0.1	1.018
x2 = 0.2	1.003
x2 = 0.3	0.9794
x2 = 0.4	0.9457
x2 = 0.5	0.9011
x2 = 0.6	0.8454
x2 = 0.7	0.788
x2 = 0.8	0.7223
x2 = 0.9	0.6544

CC12CCC(CC1)C(C)(C)O2 + C=CC(C)(O)CCC=C(C)C
viscosity [mPa·s], 101.33 kPa
Details	298.15 K	313.15 K
x1 = 0.0536	4.296	2.489
x1 = 0.1357	4.062	2.401
x1 = 0.2205	3.835	2.316
x1 = 0.3081	3.614	2.236
x1 = 0.4288	3.347	2.138
x1 = 0.562	3.093	2.048
x1 = 0.605	3.019	2.023
x1 = 0.6809	2.9	1.983
x1 = 0.8027	2.74	1.933
x1 = 0.8783	2.66	1.91
x1 = 0.9599	2.591	1.892

CCC(=O)O + CC#N
101 kPa
Details	viscosity [mPa·s]
298.15 K, x1 = 0.0727	0.3871
298.15 K, x1 = 0.1499	0.4326
298.15 K, x1 = 0.2322	0.49
298.15 K, x1 = 0.3199	0.5588
298.15 K, x1 = 0.4136	0.6378
298.15 K, x1 = 0.5141	0.7247
298.15 K, x1 = 0.6221	0.8156
298.15 K, x1 = 0.7383	0.9048
298.15 K, x1 = 0.864	0.9833
298.35 K, x1 = 0.00118	0.3554
298.36 K, x1 = 0.000675	0.3524
298.37 K, x1 = 0.001631	0.3536
299.33 K, x1 = 0.002851	0.3563
301.03 K, x1 = 0.00118	0.3451
301.05 K, x1 = 0.000675	0.3437
301.96 K, x1 = 0.002851	0.3511
302.04 K, x1 = 0.001631	0.3472
303.03 K, x1 = 0.00118	0.338
303.04 K, x1 = 0.000675	0.3378
304.04 K, x1 = 0.001631	0.3356
304.09 K, x1 = 0.002851	0.3401
305.01 K, x1 = 0.00118	0.3316
305.04 K, x1 = 0.000675	0.3319
305.99 K, x1 = 0.002851	0.3324
306.1 K, x1 = 0.001631	0.3288
308.03 K, x1 = 0.00118	0.3228
308.04 K, x1 = 0.000675	0.3223
308.15 K, x1 = 0.0727	0.3411
308.15 K, x1 = 0.1499	0.3841
308.15 K, x1 = 0.2322	0.4373
308.15 K, x1 = 0.3199	0.4999
308.15 K, x1 = 0.4136	0.5703
308.15 K, x1 = 0.5141	0.646
308.15 K, x1 = 0.6221	0.7227
308.15 K, x1 = 0.7383	0.7943
308.15 K, x1 = 0.864	0.8513
309 K, x1 = 0.002851	0.3236
309.06 K, x1 = 0.001631	0.3198
311.01 K, x1 = 0.000675	0.3134
311.01 K, x1 = 0.00118	0.3139
311.96 K, x1 = 0.002851	0.3161
312.06 K, x1 = 0.001631	0.3112
318.15 K, x1 = 0.0727	0.3007
318.15 K, x1 = 0.1499	0.345
318.15 K, x1 = 0.2322	0.3948
318.15 K, x1 = 0.3199	0.4493
318.15 K, x1 = 0.4136	0.5074
318.15 K, x1 = 0.5141	0.567
318.15 K, x1 = 0.6221	0.6251
318.15 K, x1 = 0.7383	0.6772
318.15 K, x1 = 0.864	0.7168

Nc1cccc(Cl)c1 + CC(=O)c1ccccc1
viscosity [mPa·s], 100 kPa
Details	x1 = 0.0807	x1 = 0.1719	x1 = 0.2629	x1 = 0.3608	x1 = 0.4656	x1 = 0.5646	x1 = 0.6658	x1 = 0.7765	x1 = 0.8859
303.15 K	1.647	1.812	1.993	2.206	2.459	2.723	3.022	3.386	3.788
308.15 K	1.538	1.688	1.85	2.041	2.266	2.5	2.764	3.084	3.436
313.15 K	1.38	1.515	1.66	1.83	2.031	2.239	2.474	2.758	3.069
318.15 K	1.218	1.337	1.466	1.616	1.793	1.976	2.183	2.433	2.707

ClCCCCCl + CC(C)(C)O
viscosity [mPa·s], 101 kPa
Details	x1 = 0.1005	x1 = 0.2009	x1 = 0.2964	x1 = 0.435	x1 = 0.5026	x1 = 0.602	x1 = 0.7061	x1 = 0.8038	x1 = 0.9014
298.15 K	2.618	1.826	1.482	1.315	1.257	1.202	1.18	1.182	1.208
313.15 K	1.495	1.18	1.035	0.9459	0.9313	0.9139	0.916	0.9291	0.9613

Nc1cccc(Cl)c1 + CC(C)(C)O
viscosity [mPa·s], 101 kPa
Details	x1 = 0.0912	x1 = 0.1842	x1 = 0.279	x1 = 0.3758	x1 = 0.4745	x1 = 0.5753	x1 = 0.6782	x1 = 0.7832	x1 = 0.8904
303.15 K	3.097	3.238	3.382	3.525	3.659	3.784	3.901	4.013	4.127
308.15 K	2.819	2.953	3.085	3.213	3.333	3.445	3.546	3.644	3.742
313.15 K	2.283	2.423	2.562	2.697	2.828	2.954	3.075	3.192	3.308
318.15 K	1.875	2.015	2.153	2.289	2.419	2.544	2.665	2.781	2.899

C1C[C@@H]2[C@H]3CC[C@H](C3)[C@@H]2C1 + CC(C)CC(C)(C)C
viscosity [mPa·s], 100 kPa
Details	x1 = 0.1	x1 = 0.2002	x1 = 0.3008	x1 = 0.4003	x1 = 0.5008	x1 = 0.5997	x1 = 0.6982	x1 = 0.8002	x1 = 0.9012
293.15 K	0.593	0.682	0.795	0.929	1.102	1.316	1.582	1.959	2.405
298.15 K	0.563	0.643	0.745	0.868	1.026	1.219	1.457	1.799	2.194
303.15 K	0.532	0.608	0.701	0.813	0.958	1.132	1.347	1.657	2.008
308.15 K	0.506	0.574	0.661	0.764	0.896	1.056	1.251	1.534	1.844
313.15 K	0.483	0.546	0.626	0.719	0.842	0.987	1.164	1.42	1.701

C1C[C@@H]2[C@H]3CC[C@H](C3)[C@@H]2C1 + CC(C)CO
viscosity [mPa·s], 100 kPa
Details	x1 = 0.1002	x1 = 0.2	x1 = 0.3002	x1 = 0.4003	x1 = 0.4998	x1 = 0.6003	x1 = 0.7002	x1 = 0.7994	x1 = 0.8979
293.15 K	3.668	3.397	3.217	3.04	2.883	2.814	2.769	2.78	2.848
298.15 K	3.135	2.923	2.772	2.644	2.541	2.489	2.47	2.493	2.563
303.15 K	2.692	2.526	2.408	2.318	2.247	2.219	2.219	2.249	2.323
308.15 K	2.325	2.196	2.108	2.044	1.998	1.99	2.003	2.037	2.113
313.15 K	2.02	1.92	1.856	1.814	1.787	1.79	1.814	1.854	1.929
318.15 K	1.764	1.689	1.645	1.616	1.607	1.618	1.646	1.695	1.77
323.15 K	1.551	1.494	1.465	1.448	1.452	1.471	1.507	1.555	1.627

ClCCCCCl + CC(C)CO
viscosity [mPa·s], 101 kPa
Details	x1 = 0.0994	x1 = 0.1958	x1 = 0.2938	x1 = 0.4026	x1 = 0.5	x1 = 0.6041	x1 = 0.7031	x1 = 0.801	x1 = 0.8984
298.15 K	2.524	2.027	1.715	1.501	1.371	1.285	1.236	1.208	1.215
313.15 K	1.648	1.381	1.207	1.097	1.02	0.977	0.9567	0.9491	0.9661

CCC(=O)O + CC(C)O
viscosity [mPa·s], 101 kPa
Details	x2 = 0.007361	x2 = 0.0288	x2 = 0.04944	x2 = 0.06903	x2 = 0.1	x2 = 0.1291	x2 = 0.1819	x2 = 0.2287
298.15 K	2.67	2.6	2.54	2.475	2.4	2.342	2.277	2.22
308.15 K	1.99	1.948	1.915	1.882	1.836	1.8	1.75	1.71
318.15 K	1.54	1.52	1.5	1.484	1.454	1.428	1.392	1.367
